In patent publication EP4782434A1, “N-SULFONYL CARBOXAMIDE COMPOUND, AND PREPARATION METHOD THEREFOR AND USE THEREOF” (Nutshell Therapeutics (Shanghai) Co., Ltd., priority 2023, dated 2025):

Columns and labels:
[1] = target: T1, Polθ ATPase (Homo sapiens, UniProt O75417); assay: Polθ ATPase activity assay (ADP-Glo Kinase Assay kit); assay type: biochemical; settings: truncated POLQ-N protein (aa 1-894) 1 nM, 50 nM ssDNA, 50 µM ATP
T1 construct: purified truncated POLQ-N protein (aa 1-894, N-terminal 6-His tag); 6-His (N)
Protocol: The inhibitory efficiency of the compounds of formula (I) against Polθ ATPase activity was determined using the ADP-Glo Kinase Assay kit (Promega, V9101). […] The starting (final) concentration was 100 nM, followed by a 3-fold serial dilution for a total of 10 concentration points in duplicate (n=2). 5 μL of purified […], N-terminal 6-His tag) was added to each well. After centrifugation at 1000 rpm for 1 minute, the plate was incubated at 25°C for 10 minutes. 5 μL of substrate reaction solution (containing ATP & ssDNA) was added to each well, and the reaction was carried out at 25°C for 60 minutes. 5 μL of ADP-Glo Reagent was added to each well. After centrifugation at 1000 rpm for 1 minute, the plate was incubated at 25°C for 40 minutes. 10 μL of detection solution was added to each well. After centrifugation at 1000 rpm for 1 minute, the plate was incubated at 25°C for 40 minutes. Luminescence signals were recorded using a microplate reader (BMG, PHERAstar FSX). The final reaction system contained 1 nM of POLQ-N enzyme; 50 nM of ssDNA ([NT]); 50 μM of ATP; and 1% DMSO. The inhibition percentage (%) of the compound at each concentration was calculated using the RFU values normalized against the control wells within each assay plate. Table 1: Inhibitory activity of compounds against Polθ ATPase

[2] = tested on: DLD-1 BRCA2-/- cells; assay: DLD-1 BRCA2-/- cell proliferation assay (CellTiter-Glo, 10 days incubation); assay type: cell-based; settings: Homo sapiens, 240 h, DLD-1 BRCA2-/- cell line, total incubation period of 10 days, read-out: DLD1 BRCA2^-/- IC50
Text: The anti-proliferative effect of the compounds on the human colorectal adenocarcinoma cell line DLD-1 BRCA2^-/- method.
• DLD-1 (purchased from ATCC, Cat. No.: CCL-221, Batch No.: 70033255); • RPMI1640 (purchased from Invitrogen, Cat. No.: 11875-085); • 0.25% Trypsin-EDTA (purchased from Invitrogen, Cat. No.: 25200-072); • Penicillin-Streptomycin solution (purchased from Hyclone, Cat. No.: SV30010); • FBS (purchased from BI, Cat. No.: 04-002-1A); • DMSO (purchased from Sigma, Cat. No.: D4540-1L); • 96-well plate (purchased from Corning, Cat. No.: CLS3903); • CellTiter-Glo reagent (purchased from Promega, Cat. No.: G7558).
The anti-proliferative effect of the compounds on a human colorectal adenocarcinoma cell line was evaluated using an ATP quantification method, wherein the measured activity correlates well with the number of viable cells. The genetically edited cell line DLD-1 BRCA2^-/- was cultured in RPMI 1640 medium (Invitrogen, 11875-085) supplemented with 10% (v/v) fetal bovine serum (BI, 04-002-1A). The cell line was cultured according to the standard instructions of the American Type Culture Collection (ATCC) and identified via short tandem repeat (STR) genotyping.
In the proliferation assay, cells were harvested and resuspended in cell culture medium. Cell density was determined using a cell counter. An appropriate volume of cell suspension was aspirated from the centrifuge tube to prepare a plating working solution (150 cells/100 µL for the DLD-1 BRCA2^-/- cell line). 100 µL of the cell suspension was seeded into each well of a 96-well plate (Corning, 3603) and incubated overnight in an incubator. The diluted test compound solutions were added to the wells. On the fourth and seventh days of compound incubation, the medium was replaced with fresh culture medium, and the compounds were re-administered, for a total incubation period of 10 days. Following incubation, the cell culture plates were removed and equilibrated to room temperature. 100 µL of CellTiter-Glo (Promega, G7558) was added to each well, and the plate was incubated at room temperature for 30 minutes. Data were read using a microplate reader (PerkinElmer, Enspire) in 96-well luminescence mode. Data analysis, curve fitting, and reporting were performed using the dose-response one-site 205 model of IDBS XL fit. Table 2: Proliferation inhibitory activity of compounds against DLD-1 BRCA2-/- cells

[3] = tested on: Theta-mediated end joining (TMEJ) process in HEK293T cells; assay: TMEJ reporter assay (NanoGlo luciferase); assay type: cell-based; settings: Homo sapiens, HEK-293T, HEK293T cells electroporated with TMEJ substrate, 24 hours
Protocol: The inhibitory effect of the compounds on the Theta-mediated end joining (TMEJ) process was evaluated.
(1) HEK293T cells were cultured in DMEM supplemented with 10% heat-inactivated fetal bovine serum (FBS) and 1% penicillin-streptomycin (PS). (2) Prior to startup, the Neon transfection system was disinfected, and E2 and R buffers were equilibrated to room temperature. (3) Culture medium without antibiotics was pre-warmed. (4) Cells in the flask reaching 80-90% confluency were trypsinized, neutralized with culture medium, centrifuged, and counted. (5) For transfection using a 100 µL electroporation tip, 2 × 10^6 cells were taken, washed once with DPBS (without Mg^2+ and Ca^2+), centrifuged at 1000 rpm for 5 min, and the supernatant was discarded. The number of cells and volume may be increased as required. (6) The Neon system was set up; a Neon tube was inserted into the Neon pipette and E2 buffer was added. (7) 10 µg of TMEJ substrate was added to 100 µL of R solution; the volume may be increased as required. (8) Cells were resuspended in DNA buffer, and electroporation was initiated according to the following parameters:
(9) The cells were loaded into antibiotic-free culture medium and mixed gently. (10) Steps (8)-(9) were repeated as necessary, and cells were seeded into 384-well plates at a density of 40,000 cells/well in 40 µL of culture medium. (11) The plates were incubated in a humidified CO2 incubator at 37°C for 24 hours. (12) NanoGlo reagent was warmed to room temperature, and NanoGlo buffer was mixed with the substrate at a ratio of 50:1. (13) The cell culture plates were equilibrated at room temperature for 10 minutes. (14) 40 µL of NanoGlo substrate buffer was added to each well, followed by shaking at 300 rpm for 3 minutes protected from light. (15) Signals were read via a BMG PHERAstar FSX.

T1 sequence (O75417 1-894): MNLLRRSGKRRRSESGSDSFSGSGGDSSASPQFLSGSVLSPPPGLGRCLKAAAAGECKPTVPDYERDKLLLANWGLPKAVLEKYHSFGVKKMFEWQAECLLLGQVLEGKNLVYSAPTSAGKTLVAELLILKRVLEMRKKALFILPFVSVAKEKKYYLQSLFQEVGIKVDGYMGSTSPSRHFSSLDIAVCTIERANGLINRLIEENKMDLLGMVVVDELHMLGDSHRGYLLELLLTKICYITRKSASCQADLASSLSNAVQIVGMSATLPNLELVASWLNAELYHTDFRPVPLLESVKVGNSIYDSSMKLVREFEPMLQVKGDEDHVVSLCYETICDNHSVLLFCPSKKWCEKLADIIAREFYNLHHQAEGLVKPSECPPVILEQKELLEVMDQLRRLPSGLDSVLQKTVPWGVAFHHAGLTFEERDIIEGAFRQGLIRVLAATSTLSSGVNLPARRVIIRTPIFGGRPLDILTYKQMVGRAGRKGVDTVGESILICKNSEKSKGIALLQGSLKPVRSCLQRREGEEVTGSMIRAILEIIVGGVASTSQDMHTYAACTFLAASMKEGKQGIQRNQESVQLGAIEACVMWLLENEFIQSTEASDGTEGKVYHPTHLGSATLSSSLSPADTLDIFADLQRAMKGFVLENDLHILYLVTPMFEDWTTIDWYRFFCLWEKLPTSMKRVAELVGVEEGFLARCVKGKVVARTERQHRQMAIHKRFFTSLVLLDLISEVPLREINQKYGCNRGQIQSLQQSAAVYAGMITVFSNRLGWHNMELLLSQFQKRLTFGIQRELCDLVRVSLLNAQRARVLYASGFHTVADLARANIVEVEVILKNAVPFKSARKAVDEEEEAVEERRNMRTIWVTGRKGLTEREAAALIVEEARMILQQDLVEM

| Compound | IC50 ([1]; class symbols) [nM] | IC50 ([1]; specific values) [nM] | IC50 [2] [nM] | IC50 [3] [nM] |
| --- | --- | --- | --- | --- |
| [2H]c1c([2H])c([C@H](C)OC([2H])([2H])[2H])c([2H])c([2H])c1CS(=O)(=O)NC(=O)c1ccc(C([2H])([2H])[2H])cc1-c1cc(Cl)ncc1OC [cpd-22, (S)-2-(2-Chloro-5-methoxypyridin-4-yl)-N-(4-(1-(methoxy-d3)ethyl)(phenyl-2,3,5,6-d4)methylsulfonyl)-4-(methyl-d3)benzamide] | ≤ 2 | 1.1 | 48 | 1.3 |
| [2H]C([2H])([2H])O[C@@H](C)c1ccc(CS(=O)(=O)NC(=O)c2ccc(C([2H])([2H])[2H])cc2-c2cc(C(F)F)c(F)cc2OC)cc1 [cpd-21, (S)-5'-(Difluoromethyl)-4'-fluoro-2'-methoxy-N-((4-(1-(methoxy-d3)ethyl)benzyl)sulfonyl)-5-(methyl-d3)-[1,1'-biphenyl]-2-carboxamide] | ≤ 2 | 1.5 | 5.2 | 2.3 |

Second part, led by results:

| IC50 ([1]; class symbols) [nM] | IC50 ([1]; specific values) [nM] | IC50 [2] [nM] | Compound | IC50 [3] [nM] |
| --- | --- | --- | --- | --- |
| ≤ 2 | 0.65 | 17 | COc1cnc(C(F)F)cc1-c1cc(C)ccc1C(=O)NS(=O)(=O)Cc1ccc([C@H](C)OC)cc1 [cpd-4, (S)-2-(2-(Difluoromethyl)-5-methoxypyridin-4-yl)-N-((4-(1-methoxyethyl)benzyl)sulfonyl)-4-methylbenzamide] | 1 |
| ≤ 2 | 0.5 | 27 | COc1ccc(C(F)F)cc1-c1cc(C)ncc1C(=O)NS(=O)(=O)Cc1ccc([C@H](C)OC)cc1 [cpd-5, (S)-4-(5-(Difluoromethyl)-2-methoxyphenyl)-N-((4-(1-methoxyethyl)benzyl)sulfonyl)-6-methylnicotinamide] | 1 |
| ≤ 2 | 0.45 | 21 | [2H]C([2H])([2H])O[C@@H](C)c1ccc(CS(=O)(=O)NC(=O)c2ccc(C)cc2-c2cc(C(F)F)ncc2OC)cc1 [cpd-19, (S)-2-(2-(Difluoromethyl)-5-methoxypyridin-4-yl)-N-((4-(1-(methoxy-d3)ethyl)benzyl)sulfonyl)-4-methylbenzamide] | 2 |
